Measurements as given in ChEMBL document CHEMBL4229563, “Identification of the First PPARα/γ Dual Agonist Able To Bind to Canonical and Alternative Sites of PPARγ and To Inhibit Its Cdk5-Mediated Phosphorylation” (J Med Chem, 2018).
Each block holds one molecule with its values, some of them ahead of it. Active and inactive are the calls of the source. No cut-off for these calls is given here.

Key:
[1] = target: T1, Peroxisome proliferator-activated receptor gamma (Homo sapiens, UniProt P37231); test: Transactivation of GAL4-tagged human PPARgamma LBD expressed in human HepG2 cells after 20 hrs by luciferase reporter gene assay; format: cell-based
T1 sequence (P37231 whole entry): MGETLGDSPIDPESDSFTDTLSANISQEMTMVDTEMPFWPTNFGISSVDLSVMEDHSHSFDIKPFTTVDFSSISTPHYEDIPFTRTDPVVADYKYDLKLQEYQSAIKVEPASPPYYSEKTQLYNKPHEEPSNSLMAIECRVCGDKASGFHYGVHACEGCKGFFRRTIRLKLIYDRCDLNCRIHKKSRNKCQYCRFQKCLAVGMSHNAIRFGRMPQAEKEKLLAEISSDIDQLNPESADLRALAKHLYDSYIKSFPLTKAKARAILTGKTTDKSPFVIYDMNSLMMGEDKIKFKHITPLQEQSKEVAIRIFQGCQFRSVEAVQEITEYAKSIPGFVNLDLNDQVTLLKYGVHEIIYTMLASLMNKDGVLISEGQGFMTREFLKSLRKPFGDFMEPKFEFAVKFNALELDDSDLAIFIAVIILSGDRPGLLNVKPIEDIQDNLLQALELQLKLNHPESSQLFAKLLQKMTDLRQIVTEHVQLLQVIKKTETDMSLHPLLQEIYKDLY

[2] = target: T2, Peroxisome proliferator-activated receptor alpha (Homo sapiens, UniProt Q07869); test: Transactivation of GAL4-tagged human PPARalpha LBD expressed in human HepG2 cells after 20 hrs by luciferase reporter gene assay; format: cell-based
T2 sequence (Q07869 whole entry): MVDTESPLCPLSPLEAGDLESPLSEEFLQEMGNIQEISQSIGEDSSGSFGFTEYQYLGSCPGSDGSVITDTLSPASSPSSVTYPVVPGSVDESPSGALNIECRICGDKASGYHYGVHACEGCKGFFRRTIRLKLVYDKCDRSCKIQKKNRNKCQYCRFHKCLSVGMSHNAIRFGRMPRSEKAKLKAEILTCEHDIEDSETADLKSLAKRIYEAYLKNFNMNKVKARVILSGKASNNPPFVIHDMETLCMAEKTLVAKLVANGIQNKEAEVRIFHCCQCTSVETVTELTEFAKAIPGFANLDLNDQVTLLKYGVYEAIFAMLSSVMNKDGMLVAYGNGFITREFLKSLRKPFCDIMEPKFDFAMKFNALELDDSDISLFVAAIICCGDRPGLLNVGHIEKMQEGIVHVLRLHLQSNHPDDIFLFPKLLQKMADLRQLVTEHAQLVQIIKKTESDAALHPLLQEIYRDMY

[3] = target: T3, Peroxisome proliferator-activated receptor gamma (Mus musculus) (UniProt P37238); test: Synergistic agonist activity at PPARgamma in mouse 3T3-L1 cells accessed as increase in 2-deoxy-D-glucose uptake at 10 uM in presence of 0.3 uM rosiglitazone dosed 17 hrs prior to insulin stimulation
T3 sequence (whole entry): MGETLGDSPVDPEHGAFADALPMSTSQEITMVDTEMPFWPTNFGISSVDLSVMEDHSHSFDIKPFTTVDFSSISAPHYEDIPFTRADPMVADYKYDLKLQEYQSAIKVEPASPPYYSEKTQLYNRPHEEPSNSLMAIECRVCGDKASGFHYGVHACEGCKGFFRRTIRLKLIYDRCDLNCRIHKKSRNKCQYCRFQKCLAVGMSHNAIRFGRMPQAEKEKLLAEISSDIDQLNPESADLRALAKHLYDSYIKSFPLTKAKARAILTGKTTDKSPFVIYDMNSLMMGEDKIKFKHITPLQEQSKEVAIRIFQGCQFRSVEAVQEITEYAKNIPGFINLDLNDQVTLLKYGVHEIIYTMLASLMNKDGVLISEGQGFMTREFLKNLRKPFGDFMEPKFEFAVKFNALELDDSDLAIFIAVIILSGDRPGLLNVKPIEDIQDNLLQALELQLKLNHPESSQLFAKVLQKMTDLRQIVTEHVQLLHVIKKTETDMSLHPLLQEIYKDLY

[4] = target: T3, Peroxisome proliferator-activated receptor gamma (Mus musculus); test: Agonist activity at PPARgamma in mouse 3T3-L1 cells assessed as increase in fabp4 RNA expression at 5 to 10 uM by qRT-PCR analysis; format: cell-based
[5] = target: T4, Peroxisome proliferator-activated receptor alpha (Mus musculus) (UniProt P23204); test: Agonist activity at PPARalpha in mouse Hepa1-6 cells assessed as increase in acadm RNA expression at 1 to 5 uM by qRT-PCR analysis; format: cell-based
T4 sequence (whole entry): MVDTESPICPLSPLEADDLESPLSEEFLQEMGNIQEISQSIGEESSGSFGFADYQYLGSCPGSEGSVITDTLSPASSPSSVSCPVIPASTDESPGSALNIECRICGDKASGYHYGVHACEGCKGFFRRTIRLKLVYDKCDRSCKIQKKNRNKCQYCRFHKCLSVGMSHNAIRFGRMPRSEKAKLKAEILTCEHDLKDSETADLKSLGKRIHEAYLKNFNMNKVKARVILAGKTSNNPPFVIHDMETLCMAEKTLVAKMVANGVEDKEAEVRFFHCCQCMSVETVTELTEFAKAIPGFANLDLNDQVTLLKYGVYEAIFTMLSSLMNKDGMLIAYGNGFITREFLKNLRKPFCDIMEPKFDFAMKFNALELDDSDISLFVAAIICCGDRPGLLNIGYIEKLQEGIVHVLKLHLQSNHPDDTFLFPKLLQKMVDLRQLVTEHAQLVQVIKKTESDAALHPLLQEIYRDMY

[6] = target: T1, Peroxisome proliferator-activated receptor gamma; test: Synergistic agonist activity at human PPARgamma LBD assessed as biotin-labeled PGC1alpha (130 to 154 residues) co-activator recruitment after 1 hr in presence of 1 uM rosiglitazone by TR-FRET assay
[7] = target: T3, Peroxisome proliferator-activated receptor gamma (Mus musculus); test: Agonist activity at PPARgamma in mouse 3T3-L1 cells accessed as increase in 2-deoxy-D-glucose uptake at 10 uM treated 17 hrs prior to insulin stimulation; format: cell-based
[8] = target: T3, Peroxisome proliferator-activated receptor gamma (Mus musculus); test: Agonist activity at PPARgamma in mouse 3T3-L1 cells assessed as increase in glut4 RNA expression at 5 to 10 uM by qRT-PCR analysis; format: cell-based
[9] = target: T3, Peroxisome proliferator-activated receptor gamma (Mus musculus); test: Agonist activity at PPARgamma in mouse 3T3-L1 cells assessed as increase in adipoq RNA expression at 5 to 10 uM by qRT-PCR analysis; format: cell-based
[10] = target: T1, Peroxisome proliferator-activated receptor gamma; test: Synergistic agonist activity at human PPARgamma LBD assessed as biotin-labeled PGC1alpha (130 to 154 residues) co-activator recruitment after 1 hr in presence of 10 uM rosiglitazone by TR-FRET assay
[11] = target: T3, Peroxisome proliferator-activated receptor gamma (Mus musculus); test: Agonist activity at PPARgamma in mouse 3T3-L1 cells assessed as increase in fabp4 RNA expression at 0.1 to 2.5 uM by qRT-PCR analysis; format: cell-based
[12] = target: T1, Peroxisome proliferator-activated receptor gamma; test: Synergistic agonist activity at human PPARgamma LBD assessed as biotin-labeled PGC1alpha (130 to 154 residues) co-activator recruitment after 1 hr in presence of 0.37 uM rosiglitazone by TR-FRET assay
[13] = target: T3, Peroxisome proliferator-activated receptor gamma (Mus musculus); test: Agonist activity at PPARgamma in mouse 3T3-L1 cells assessed as increase in pck1 RNA expression at 5 to 10 uM by qRT-PCR analysis; format: cell-based
[14] = target: T3, Peroxisome proliferator-activated receptor gamma (Mus musculus); test: Agonist activity at PPARgamma in mouse 3T3-L1 cells assessed as increase in adipoq RNA expression at 0.1 to 2.5 uM by qRT-PCR analysis; format: cell-based
[15] = target: T4, Peroxisome proliferator-activated receptor alpha (Mus musculus); test: Agonist activity at PPARalpha in mouse Hepa1-6 cells assessed as increase in cpt1a RNA expression at 1 to 5 uM by qRT-PCR analysis; format: cell-based
[16] = target: T3, Peroxisome proliferator-activated receptor gamma (Mus musculus); test: Agonist activity at PPARgamma in mouse 3T3-L1 cells assessed as increase in Suclg1 RNA expression at 0.1 to 2.5 uM by qRT-PCR analysis; format: cell-based
[17] = target: T3, Peroxisome proliferator-activated receptor gamma (Mus musculus); test: Agonist activity at PPARgamma in mouse 3T3-L1 cells assessed as increase in glut4 RNA expression at 0.1 to 2.5 uM by qRT-PCR analysis; format: cell-based
[18] = target: T5, Peroxisome proliferator-activated receptor gamma (Homo sapiens) (UniProt P37231); test: Agonist activity at human PPARgamma LBD assessed as induction of recruitment of biotin-labeled PGC1alpha (130 to 154 residues) co-activator at >1 uM after 1 hr by TR-FRET assay
T5 sequence (whole entry): T1 sequence (P37231 whole entry)

[19] = tested on: 3T3-L1; test: Induction of lipid accumulation in mouse 3T3L1 cells at 0.1 to 2.5 uM by Oil Red O staining-based assay; format: functional, cell-based
[20] = target: T3, Peroxisome proliferator-activated receptor gamma (Mus musculus); test: Agonist activity at PPARgamma in mouse 3T3-L1 cells assessed as increase in Gk RNA expression at 0.1 to 2.5 uM by qRT-PCR analysis; format: cell-based
[21] = target: T5, Peroxisome proliferator-activated receptor gamma (Homo sapiens); test: Binding affinity wild type apo form of PPARgamma (unknown origin) assessed as inhibition of CDK5/p35-mediated PPARgamma phosphorylation at ser273 at 0.1 to 10 uM after 3.5 hrs by ELISA relative to rosiglitazone
[22] = target: T3, Peroxisome proliferator-activated receptor gamma (Mus musculus); test: Agonist activity at PPARgamma in mouse 3T3-L1 cells assessed as increase in CD36 RNA expression at 0.1 to 2.5 uM by qRT-PCR analysis; format: cell-based
[23] = target: T3, Peroxisome proliferator-activated receptor gamma (Mus musculus); test: Agonist activity at PPARgamma in mouse 3T3-L1 cells assessed as increase in pck1 RNA expression at 0.1 to 2.5 uM by qRT-PCR analysis; format: cell-based
[24] = target: T5, Peroxisome proliferator-activated receptor gamma (Homo sapiens); test: Transactivation of GAL4-tagged human PPARgamma LBD expressed in human HepG2 cells at 10^-9 to 10^-5 M after 20 hrs in presence of 5 uM PPARgamma antagonist GW9662 by luciferase reporter gene assay; format: cell-based
[25] = target: T6, Peroxisome proliferator-activated receptor alpha (Homo sapiens) (UniProt Q07869); test: Transactivation of GAL4-tagged human PPARalpha LBD expressed in human HepG2 cells after 20 hrs by luciferase reporter gene assay relative to Wy-14,643; format: cell-based
T6 sequence (whole entry): T2 sequence (Q07869 whole entry)

[26] = target: T3, Peroxisome proliferator-activated receptor gamma (Mus musculus); test: Agonist activity at PPARgamma in mouse 3T3-L1 cells assessed as increase in Idh3a RNA expression at 0.1 to 2.5 uM by qRT-PCR analysis; format: cell-based
[27] = tested on: 3T3-L1; test: Induction of cells lipid accumulation in mouse 3T3L1 cells at 10 uM by Oil Red O staining-based assay; format: functional, cell-based
[28] = target: T4, Peroxisome proliferator-activated receptor alpha (Mus musculus); test: Agonist activity at PPARalpha in mouse Hepa1-6 cells assessed as increase in Acox1 RNA expression at 1 to 5 uM by qRT-PCR analysis; format: cell-based
[29] = tested on: 3T3-L1; test: Induction of lipid accumulation in mouse 3T3L1 cells at 2 uM by Oil Red O staining-based assay; format: functional, cell-based
[30] = tested on: 3T3-L1; test: Induction of lipid accumulation in mouse 3T3L1 cells at 5 uM by Oil Red O staining-based assay; format: functional, cell-based

EC50 [1]: 18 µM
EC50 ([2]; read-out: EC50): 27 µM
SMILES: O=C(O)[C@H](Cc1ccc(-c2ccc(O[C@H](Cc3ccccc3)C(=O)O)cc2)cc1)Oc1ccc(-c2ccccc2)cc1

EC50 [1]: 25 µM
EC50 ([2]; read-out: EC50): 9.5 µM
SMILES: O=C(O)[C@H](Cc1ccccc1)Oc1ccc(-c2ccc(C[C@@H](Oc3ccc(-c4ccccc4)cc3)C(=O)O)cc2)cc1

Activity [3]: Active
Activity [4]: inactive
Activity [5]: Active
EC50 [6]: 2.85 µM
Activity [7]: Active
Activity [8]: inactive
Activity [9]: inactive
EC50 [10]: 9.78 µM
Activity [11]: inactive
EC50 [12]: 3.69 µM
Activity [13]: inactive
Activity [14]: inactive
Activity [15]: Active
Activity [16]: inactive
Activity [17]: inactive
Activity [18]: Active
Activity [20]: inactive
Activity [21]: Active
EC50 [1]: 0.12 µM
EC50 ([2]; read-out: EC50): 1.05 µM
Activity [22]: inactive
Activity [23]: inactive
Activity [24]: Active
Emax [25]: 68%
Activity [26]: inactive
Activity [28]: Active
SMILES: O=C(O)[C@H](Cc1ccc(-c2ccccc2)cc1)Oc1ccc(-c2ccccc2)cc1
Activity [19]: inactive
Activity [27]: inactive

SMILES: CN(CCOc1ccc(CC2SC(=O)NC2=O)cc1)c1ccccn1 (stereo unspecified)
Activity [29]: Active
Activity [30]: Active

EC50 [1]: 0.89 µM
EC50 ([2]; read-out: EC50): 2.6 µM
Emax [25]: 25%
SMILES: O=C(O)[C@@H](Cc1ccc(-c2ccccc2)cc1)Oc1ccc(-c2ccccc2)cc1

EC50 [1]: 9.8 µM
EC50 ([2]; read-out: EC50): 5.9 µM
SMILES: O=C(O)[C@H](Cc1ccc(-c2ccc(O[C@@H](Cc3ccccc3)C(=O)O)cc2)cc1)Oc1ccc(-c2ccccc2)cc1

EC50 [1]: 15 µM
EC50 ([2]; hepg2): Not Active
SMILES: O=C(O)[C@@H](Cc1ccc(-c2ccc(O[C@H](Cc3ccccc3)C(=O)O)cc2)cc1)Oc1ccc(-c2ccccc2)cc1
